{"source": "patent US20260166039A1", "about": "(SCHRÖDINGER, INC., priority 2022, published 2026)"}
{"target": "T1, Wee1 kinase domain (Homo sapiens, UniProt P30291)", "T1 construct": "Wee1 kinase domain was purchased from Carna (catalog #05-177); purchased Carna 05-177", "T1 sequence (P30291 299-569 limits assumed)": "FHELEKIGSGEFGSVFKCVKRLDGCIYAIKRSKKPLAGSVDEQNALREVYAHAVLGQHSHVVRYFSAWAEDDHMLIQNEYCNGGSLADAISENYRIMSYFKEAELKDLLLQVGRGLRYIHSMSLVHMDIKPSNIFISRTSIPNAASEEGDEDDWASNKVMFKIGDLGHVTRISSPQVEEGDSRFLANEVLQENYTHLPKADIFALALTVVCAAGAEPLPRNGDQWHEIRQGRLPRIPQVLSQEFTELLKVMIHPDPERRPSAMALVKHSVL", "test": "Wee1 Kinase Biochemical Assay (ADP-Glo)", "conditions": "1 nM Wee1 enzyme, 15 uM ATP, 4 hours at 25° C", "method_in_brief": "(§1)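 ADP-Glo detection of ADP produced after 4 h at 25° C by 1 nM Wee1 kinase domain on 2 ng/mL poly(Lys,Tyr 4:1) with 15 uM ATP. Buffer: 40 mM Tris-HCl, 20 mM MgCl2, 0.1 mg/mL BSA, 2 mM DTT. Inhibition is relative to DMSO (high) and saturating Wee1 inhibitor (low) controls.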", "units": {"IC50": "nM"}}
{"smiles": "CC1(C)C[C@H]2N(c3cccc(N=S(C)(C)=O)n3)c3nc(Nc4cncnc4)ncc3[C@@]2(C)CO1", "note": "(single isomer, unassigned) [Example 817]", "IC50": "< 10"}
{"smiles": "Cc1cc(Nc2ncc3c(n2)N(c2cccc(N=S(C)(C)=O)n2)C2CC(C)(C)OCC32C)cc(=O)n1C", "note": "(single isomer, unassigned) [Example 816]", "IC50": "< 10"}
{"target": "T1, Wee1 kinase domain", "test": "Wee1 Kinase Biochemical Assay (ADP-Glo)", "conditions": "Wee1 kinase domain, 15 uM ATP, ADP-Glo", "method_in_brief": "as §1", "units": {"IC50": "nM"}}
{"smiles": "[2H]C([2H])([2H])N1CCC(c2ccc(Nc3ncc4c(n3)N(c3cccc(N=S(C)(C)=O)n3)[C@H]3CC(C)(C)OC[C@@]43C)cc2)CC1", "note": "(single isomer, unassigned) [Example 161]", "IC50": "100 to 1000"}
{"smiles": "Cc1cc(Nc2ncc3c(n2)N(c2cccc(N4C(=O)OC[C@@H]4C)n2)[C@H]2CC(C)(C)OC[C@@]32C)ccc1O[C@@H]1CCNC1", "note": "(single isomer, unassigned) [Example 336]", "IC50": "10 to 100"}
{"smiles": "CN1CCC(n2cc(Nc3ncc4c(n3)N(c3cccc(C(C)(C)O)n3)[C@H]3CC(C)(C)OC[C@@]43C)cn2)CC1", "note": "(single isomer, unassigned) [Example 12]", "IC50": "100 to 1000"}
{"smiles": "CC1(C)C[C@H]2N(c3cccc(N=S(C)(C)=O)n3)c3nc(Nc4ccc5cnnn5c4)ncc3[C@@]2(C)CO1", "note": "(single isomer, unassigned) [Example 362]", "IC50": "< 10"}
{"smiles": "C[C@H]1COC(=O)N1c1cccc(N2c3nc(Nc4ccc(N5C[C@@H]6C[C@H]5CN6C)cc4)ncc3[C@]3(C)COC(C)(C)C[C@H]23)n1", "note": "(single isomer, unassigned) [Example 244]", "IC50": "10 to 100"}
{"smiles": "CC1(C)C[C@H]2N(c3cccc(N=S(C)(C)=O)n3)c3nc(Nc4ccc5cnoc5c4)ncc3[C@@]2(C)CO1", "note": "(single isomer, unassigned) [Example 381]", "IC50": "< 10"}
{"smiles": "C[C@H]1COC(=O)N1c1cccc(N2c3nc(Nc4ccc(N5CCN(C)CC5=O)cc4)ncc3[C@]3(C)COC(C)(C)C[C@H]23)n1", "note": "(single isomer, unassigned) [Example 270]", "IC50": "10 to 100"}
{"smiles": "CC1(C)C[C@@H]2N(c3cccc(N=S(C)(C)=O)n3)c3nc(Nc4ccc([C@@H]5CCCN5)nc4)ncc3[C@]2(C)CO1", "note": "(single isomer, unassigned) [Example 213]", "IC50": "10 to 100"}
{"smiles": "CNCc1cccc(N2c3nc(Nc4ccc(N5C6CCC5COC6)c(C)c4)ncc3[C@]3(C)COC(C)(C)C[C@H]23)n1", "note": "(single isomer, unassigned) [Example 86]", "IC50": "100 to 1000"}
{"smiles": "C[C@H]1COC(=O)N1c1cccc(N2c3nc(Nc4ccc([C@@H]5CCN(C)C5)cc4)ncc3[C@]3(C)COC(C)(C)C[C@H]23)n1", "note": "(single isomer, unassigned) [Example 304]", "IC50": "10 to 100"}
{"smiles": "Cc1cc(Nc2ncc3c(n2)N(c2cccc(N=S(C)(C)=O)n2)[C@H]2CC(C)(C)OC[C@@]32C)ccc1N1CCN(C)CC1", "note": "(single isomer, unassigned) [Example 105]", "IC50": "10 to 100"}
{"smiles": "C[C@@H]1CN(c2ccc(Nc3ncc4c(n3)N(c3cccc(N5C(=O)OC[C@@H]5C)n3)[C@H]3CC(C)(C)OC[C@@]43C)cc2)CCN1C", "note": "(single isomer, unassigned) [Example 312]", "IC50": "10 to 100"}
{"smiles": "C[C@H]1COC(=O)N1c1cccc(N2c3nc(Nc4ccc(O[C@H]5CCNC5)cc4)ncc3[C@]3(C)COC(C)(C)C[C@H]23)n1", "note": "(single isomer, unassigned) [Example 328]", "IC50": "100 to 1000"}
{"smiles": "C[C@H]1COC(=O)N1c1cccc(N2c3nc(N)ncc3[C@]3(C)COC(C)(C)C[C@H]23)n1", "note": "(single isomer, unassigned) [Example 357]", "IC50": "100 to 1000"}
{"smiles": "CC1(C)C[C@H]2N(c3cccc([C@@H]4CCCN4)n3)c3nc(Nc4ccn(C5CCOCC5)c(=O)c4)ncc3[C@@]2(C)CO1", "note": "(single isomer, unassigned) [Example 392]", "IC50": "< 10"}
{"smiles": "CN[C@H](Cc1ccc(Nc2ncc3c(n2)N(c2cccc(N4C(=O)OC[C@@H]4C)n2)[C@H]2CC(C)(C)OC[C@@]32C)cc1)C(=O)O", "note": "(single isomer, unassigned) [Example 322]", "IC50": "100 to 1000"}
{"smiles": "CNCc1cccc(N2c3nc(Nc4ccc([C@@]5(C)CCN(C)C5=O)cc4)ncc3[C@]3(C)COC(C)(C)C[C@H]23)n1", "note": "(single isomer, unassigned) [Example 79]", "IC50": "100 to 1000"}
{"target": "T1, Wee1 kinase domain", "test": "Wee1 Kinase Biochemical Assay (ADP-Glo)", "conditions": "class symbols; 1 nM Wee1 enzyme, 15 uM ATP, 4 hours at 25° C.", "method_in_brief": "as §1", "units": {"IC50": "nM"}}
{"smiles": "CN[C@@H](C)c1cccc(N2c3nc(Nc4ccc(N5CCOCC5)cc4)ncc3[C@]3(C)COC(C)(C)C[C@H]23)n1", "note": "(single isomer, unassigned) [Example 538]", "IC50": "10 to 100"}
{"smiles": "CC[C@]1(O)CCc2ccc(N3c4nc(Nc5ccc(N6CCN(C)CC6)cc5)ncc4[C@@]4(C)COC(C)(C)C[C@@H]34)nc21", "note": "[Example 788, (S)-7-ethyl-2-((4bR,8aR)-4b,7,7-trimethyl-2-((4-(4-methylpiperazin-1-yl)phenyl)amino)-4b,7,8,8a-tetrahydropyrano[3′,4′:4,5]pyrrolo[2,3-d]pyrimidin-9(5H)-yl)-6,7-dihydro-5H-cyclopenta[b]pyridin-7-ol]", "IC50": "< 10"}
{"smiles": "CN1C[C@H]2C[C@@H]1CN2c1ccc(Nc2ncc3c(n2)N(c2cccc(N4C(=O)OCC4(C)C)n2)[C@@H]2CC(C)(C)OC[C@]32C)cc1", "note": "[Example 795, 4,4-dimethyl-3-(6-((4bR,8aR)-4b,7,7-trimethyl-2-((4-((1R,4R)-5-methyl-2,5-diazabicyclo[2.2.1]heptan-2-yl)phenyl)amino)-4b,7,8,8a-tetrahydropyrano[3′,4′:4,5]pyrrolo[2,3-d]pyrimidin-9(5H)-yl)pyridin-2-yl)oxazolidin-2-one]", "IC50": "< 10"}
{"smiles": "CC1(C)C[C@H]2N(c3cccc(N=S(C)(C)=O)n3)c3nc(Nc4ccc(N5CCN6CCC[C@H]6C5)cc4)ncc3[C@@]2(C)CO1", "note": "(single isomer, unassigned) [Example 507]", "IC50": "< 10"}
{"smiles": "CN1CC[C@H](c2ccc(Nc3ncc4c(n3)N(c3cccc(N5CCCC5=O)n3)[C@H]3CC(C)(C)OC[C@@]43C)cc2)C1", "note": "[Example 635, 1-(6-((4bS,8aS)-4b,7,7-trimethyl-2-((4-((R)-1-methylpyrrolidin-3-yl)phenyl)amino)-4b,7,8,8a-tetrahydropyrano[3′,4′:4,5]pyrrolo[2,3-d]pyrimidin-9(5H)-yl)pyridin-2-yl)pyrrolidin-2-one]", "IC50": "10 to 100"}
{"smiles": "CN1C[C@H]2C[C@@H]1CN2c1ccc(Nc2ncc3c(n2)N(c2cccc(C4(O)CC4)n2)[C@H]2CC(C)(C)OC[C@@]32C)cc1", "note": "[Example 647, 1-(6-((4bS,8aS)-4b,7,7-trimethyl-2-((4-((1R,4R)-5-methyl-2,5-diazabicyclo[2.2.1]heptan-2-yl)phenyl)amino)-4b,7,8,8a-tetrahydropyrano[3′,4′:4,5]pyrrolo[2,3-d]pyrimidin-9(5H)-yl)pyridin-2-yl)cyclopropan-1-ol]", "IC50": "10 to 100"}
{"smiles": "C[C@@H]1COC(=O)N1c1cccc(N2c3nc(Nc4ccc(N5CCN(C)CC5)cc4)ncc3[C@]3(C)COC(C)(C)C[C@H]23)n1", "note": "(single isomer, unassigned) [Example 588]", "IC50": "10 to 100"}
{"smiles": "CN1CC[C@@H]2CN(c3ccc(Nc4ncc5c(n4)N(c4cccc(N6CCCC6=O)n4)[C@H]4CC(C)(C)OC[C@@]54C)cc3)C[C@@H]21", "note": "[Example 687, 1-(6-((4bS,8aS)-4b,7,7-trimethyl-2-((4-((3aR,6aR)-1-methylhexahydropyrrolo[3,4-b]pyrrol-5(1H)-yl)phenyl)amino)-4b,7,8,8a-tetrahydropyrano[3′,4′:4,5]pyrrolo[2,3-d]pyrimidin-9(5H)-yl)pyridin-2-yl)pyrrolidin-2-one]", "IC50": "100 to 1000"}
{"smiles": "CN1CC(c2ccc(Nc3ncc4c(n3)N(c3cccc(N5CCOC5=O)n3)[C@H]3CC(C)(C)OC[C@@]43C)cc2)C1", "note": "[Example 699, 3-(6-((4bS,8aS)-4b,7,7-trimethyl-2-((4-(1-methylazetidin-3-yl)phenyl)amino)-4b,7,8,8a-tetrahydropyrano[3′,4′:4,5]pyrrolo[2,3-d]pyrimidin-9(5H)-yl)pyridin-2-yl)oxazolidin-2-one]", "IC50": "100 to 1000"}
{"smiles": "CN1C[C@H]2C[C@@H]1CN2c1ccc(Nc2ncc3c(n2)N(c2cccc(N=S(C)(C)=O)c2)[C@H]2CC(C)(C)OC[C@@]32C)cc1", "note": "[Example 714, dimethyl((3-((4bS,8aS)-4b,7,7-trimethyl-2-((4-((1R,4R)-5-methyl-2,5-diazabicyclo[2.2.1]heptan-2-yl)phenyl)amino)-4b,7,8,8a-tetrahydropyrano[3′,4′:4,5]pyrrolo[2,3-d]pyrimidin-9(5H)-yl)phenyl)imino)-16-sulfanone]", "IC50": "10 to 100"}
{"smiles": "CN[C@H]1CCc2ccc(N3c4nc(Nc5ccc(N6CCOCC6)cc5)ncc4[C@@]4(C)COC(C)(C)C[C@@H]34)nc21", "note": "(single isomer, unassigned) [Example 552]", "IC50": "100 to 1000"}
{"smiles": "CNCc1cccc(N2c3nc(Nc4ccc([C@@H]5CCNC5)cc4)ncc3[C@]3(C)COC(C)(C)C[C@H]23)n1", "note": "(single isomer, unassigned) [Example 453]", "IC50": "100 to 1000"}
{"smiles": "CNCc1cccc(N2c3nc(Nc4cccc(N5CCOCC5)c4)ncc3[C@]3(C)COC(C)(C)C[C@H]23)n1", "note": "(single isomer, unassigned) [Example 469]", "IC50": "100 to 1000"}
{"smiles": "CN1CCN(c2ccc(Nc3ncc4c(n3)N(c3cccc(C(F)F)n3)[C@@H]3CC(C)(C)OC[C@]43C)cc2)CC1", "note": "(single isomer, unassigned) [Example 807]", "IC50": "< 10"}
{"smiles": "CN1CCC(c2ccc(Nc3ncc4c(n3)N(c3cccc(N=S(C)(C)=O)c3)[C@H]3CC(C)(C)OC[C@@]43C)cn2)CC1", "note": "[Example 709, dimethyl((3-((4bS,8aS)-4b,7,7-trimethyl-2-((6-(1-methylpiperidin-4-yl)pyridin-3-yl)amino)-4b,7,8,8a-tetrahydropyrano[3′,4′:4,5]pyrrolo[2,3-d]pyrimidin-9(5H)-yl)phenyl)imino)-16-sulfanone]", "IC50": "≥ 1000"}
{"smiles": "CN1CCN(c2ccc(Nc3ncc4c(n3)N(c3cccc(N5CCOC5=O)n3)[C@H]3CC(C)(C)OC[C@@]43C)cc2)CC1", "note": "(single isomer, unassigned) [Example 576]", "IC50": "100 to 1000"}
{"smiles": "CCn1cc(Nc2ncc3c(n2)N(c2cccc(N=S(C)(C)=O)n2)[C@@H]2CC(C)(C)OC[C@]32C)nn1", "note": "(single isomer, unassigned) [Example 516]", "IC50": "< 10"}
